According to US7008944B2, “Antidepressant azaheterocyclylmethyl derivatives of 2,3-dihydro-1,4-Dioxino[2,3-f]quinoxaline” (Wyeth, priority 2001, dated 2006):
Like-named read-outs stand apart in the source and are kept apart here. Values belong to the molecule of their own block, whether it stands above or below them.

Assays:
serotonin transporter = target: T1, serotonin transporter (Rattus norvegicus, UniProt P31652); test: 3H-paroxetine displacement, serotonin transporter affinity; type: binding
T1 construct: displace ^3H-paroxetine from male rat frontal cortical membranes; from tissue; host or cells: male rat frontal cortex membranes

human 5-HT1A receptors = target: T2, human 5-HT1A receptors (Homo sapiens, UniProt P08908); test: [3H] 8-OHDPAT displacement, 5-HT1A receptor affinity; type: binding
T2 construct: expressed in transfected cells; host or cells: CHO cells
T2 sequence (P08908 1-422): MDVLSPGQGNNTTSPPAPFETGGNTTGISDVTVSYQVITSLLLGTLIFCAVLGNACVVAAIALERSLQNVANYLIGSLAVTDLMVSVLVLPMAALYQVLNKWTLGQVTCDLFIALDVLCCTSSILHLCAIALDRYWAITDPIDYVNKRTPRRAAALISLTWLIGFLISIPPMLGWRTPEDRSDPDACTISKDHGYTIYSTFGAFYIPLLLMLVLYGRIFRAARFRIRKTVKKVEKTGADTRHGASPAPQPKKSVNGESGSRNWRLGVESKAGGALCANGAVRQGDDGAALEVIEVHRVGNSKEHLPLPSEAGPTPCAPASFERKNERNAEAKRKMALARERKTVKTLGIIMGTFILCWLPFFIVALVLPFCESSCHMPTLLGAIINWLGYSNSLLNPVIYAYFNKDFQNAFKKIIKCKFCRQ
Source text: High affinity for the serotonin 5-HT1A receptor was established by testing the claimed compound's ability to displace [^3H] 8-OHDPAT (dipropylamino-tetralin) from the 5-HT1A serotonin receptor following a modification of the procedure of Hall et al., J. Neurochem. 44, 1685 (1985) which utilizes CHO cells stably transfected with human 5-HT1A receptors.

[1] = target: T3, cloned human 5-HT1A receptors (Homo sapiens, UniProt P08908); test: 35S-GTPγS binding assay, 5-HT1A antagonist activity; type: biochemical; settings: reversal of the effects of standard agonist 8-OH DPAT; for IC50: read-out: 5-HT1A Function IC50
T3 construct: expressed in transfected cells
T3 sequence (P08908 1-422): T2 sequence (P08908 1-422)
Protocol: Antagonist activity at 5-HT1A receptors was established by using a ^35S-GTPγS binding assay similar to that used by Lazareno and Birdsall (Br. J. Pharmacol. 109: 1120, 1993), in which the test compound's ability to affect the binding of ^35S-GTPγS to membranes containing cloned human 5-HT1A receptors was determined. Agonists produce an increase in binding whereas antagonists produce no increase but rather reverse the effects of the standard agonist 8-OH DPAT. The test compound's maximum inhibitory effect is represented as the Imax, while its potency is defined by the IC50.

T1 sequence (P31652 whole entry): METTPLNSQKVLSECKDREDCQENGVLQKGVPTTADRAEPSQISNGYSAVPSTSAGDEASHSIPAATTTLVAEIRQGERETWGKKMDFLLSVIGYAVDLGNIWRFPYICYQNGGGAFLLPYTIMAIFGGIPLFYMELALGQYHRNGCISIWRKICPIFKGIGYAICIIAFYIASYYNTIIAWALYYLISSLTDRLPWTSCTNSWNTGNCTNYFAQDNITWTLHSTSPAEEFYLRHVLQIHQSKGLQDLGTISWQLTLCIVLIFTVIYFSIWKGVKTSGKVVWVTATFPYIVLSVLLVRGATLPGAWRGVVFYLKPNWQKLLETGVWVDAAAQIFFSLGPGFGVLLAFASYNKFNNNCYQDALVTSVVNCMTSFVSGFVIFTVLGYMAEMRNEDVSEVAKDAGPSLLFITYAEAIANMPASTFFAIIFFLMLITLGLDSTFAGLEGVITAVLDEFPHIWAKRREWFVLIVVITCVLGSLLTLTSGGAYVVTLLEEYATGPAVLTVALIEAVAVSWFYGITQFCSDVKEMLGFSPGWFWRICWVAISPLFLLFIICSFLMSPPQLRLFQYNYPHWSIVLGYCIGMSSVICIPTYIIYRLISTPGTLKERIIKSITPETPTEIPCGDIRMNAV

SMILES: Cc1nc2ccc3c(c2nc1C)O[C@@H](CN1CC=C(c2c[nH]c4ccccc24)CC1)CO3 [Example 3]
Ki (serotonin transporter): 1.19 nM | Ki (human 5-HT1A receptors): 15.3 nM | 5-HT1A Function Imax (maximum inhibitory effect) [1]: 100% | IC50 [1]: 332 nM | melting point: 153 to 155 °C

SMILES: C1=C(c2c[nH]c3ccccc23)CCN(CC2COc3ccc4nccnc4c3O2)C1 (stereo not drawn) [Example 2, 2-{[4-(1H-Indol-3-yl)-3,6-dihydro-1(2H)-pyridinyl]methyl}-2,3-dihydro[1,4]dioxino[2,3-f]quinoxaline]
Ki (serotonin transporter): 2.86 nM | Ki (human 5-HT1A receptors): 30 nM | 5-HT1A Function Imax (maximum inhibitory effect) [1]: 100% | IC50 [1]: 203 nM | melting point: > 220 °C (dec.)

SMILES: Cc1nc2ccc3c(c2nc1C)OC(CN1CC=C(c2c[nH]c4ccc(F)cc24)CC1)CO3 (stereo not drawn) [Example 4, 2-{[4-(5-Fluoro-1H-indol-3-yl)-3,6-dihydro-1(2H)-pyridinyl]methyl}-8,9-dimethyl-2,3-dihydro[1,4]dioxino[2,3-f]quinoxaline]
Ki (serotonin transporter): 1.57 nM | Ki (human 5-HT1A receptors): 25.5 nM | 5-HT1A Function Imax (maximum inhibitory effect) [1]: 100% | IC50 [1]: 389 nM | melting point: 138 to 141 °C

SMILES: CCc1nc2ccc3c(c2nc1CC)OC(CN1CC=C(c2c[nH]c4ccccc24)CC1)CO3 (stereo not drawn) [Example 5, 8,9-Diethyl-2-{[4-(1H-indol-3-yl)-3,6-dihydro-1(2H)-pyridinyl]methyl}-2,3-dihydro[1,4]dioxino[2,3-f]quinoxaline]
Ki (serotonin transporter): 9.5 nM | Ki (human 5-HT1A receptors): 99.2 nM | 5-HT1A Function Imax (maximum inhibitory effect) [1]: 98% | IC50 [1]: 1860 nM | melting point: > 120 °C (dec.)

Ki (serotonin transporter; displacement of 3H-paroxetine from male rat frontal cortical membranes, read-out: 5-HT Transporter Affinity KI): 14 nM | Ki (human 5-HT1A receptors; displacement of [3H] 8-OHDPAT, CHO cells stably transfected with human 5-HT1A receptors, read-out: 5-HT1A Receptor Affinity KI): 264 nM | 5-HT1A Function Imax (maximum inhibitory effect) [1]: 100% | IC50 [1]: 2240 nM | melting point: > 120 °C (dec.)
SMILES: CCc1nc2ccc3c(c2nc1CC)OC(CN1CC=C(c2c[nH]c4ccc(F)cc24)CC1)CO3 (stereo not drawn) [Example 6, 8,9-Diethyl-2-{[4-(5-fluoro-1H-indol-3-yl)-3,6-dihydro-1(2H)-pyridinyl]methyl}-2,3-dihydro[1,4]dioxino[2,3-f]quinoxaline]

SMILES: Fc1ccc2[nH]cc(C3=CCN(CC4COc5ccc6nccnc6c5O4)CC3)c2c1 (stereo not drawn) [Example 1, 2-{[4-(5-Fluoro-1H-indol-3-yl)-3,6-dihydro-1(2H)-pyridinyl]methyl}-2,3-dihydro[1,4]dioxino[2,3-f]quinoxaline]
Ki (serotonin transporter): 0.5 nM | Ki (human 5-HT1A receptors): 17.7 nM | 5-HT1A Function Imax (maximum inhibitory effect) [1]: 100% | IC50 [1]: 271 nM | melting point: > 200 °C (dec.)
